Our source for the T/C values is PubChem BioAssay AID212 (DTP/NCI, 2004).

This assay has as its system BDF1 mice, colon carcinoma 38 sc, T/C %. As to the kind of experiment: NCI In Vivo Anticancer Drug Screen. Data for tumor model Colon Carcinoma 38 (subcutaneous) in B6D2F1 (BDF1) mice. The settings on record: endpoint: median tumor weight (est.), higher = larger tumour. In short, it runs like this:
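Compound antitumor activity was assessed in mice carrying transplantable tumors. Survival or tumor size was recorded, and each value is the treated-group measurement divided by that of the vehicle-treated control group.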

The mark [1] stands for this setting: dose: 25.0 mg/kg/injection, schedule: Q07DX002 (ip), vehicle: saline.
Setting [2] is: dose: 200.0 mg/kg/injection, schedule: Q07DX002 (ip), vehicle: saline.
Where [3] appears, read: dose: 12.5 mg/kg/injection, schedule: Q07DX002 (ip), vehicle: saline with Tween-80.
[4] abbreviates: dose: 25.0 mg/kg/injection, schedule: Q07DX002 (ip), vehicle: saline with Tween-80.
Where [5] appears, read: dose: 100.0 mg/kg/injection, schedule: Q07DX002 (ip), vehicle: saline with Tween-80.
[6] abbreviates: dose: 400.0 mg/kg/injection, schedule: Q07DX002 (ip), vehicle: saline with Tween-80.
Setting [7] is: dose: 200.0 mg/kg/injection, schedule: Q07DX002 (ip), vehicle: saline with Tween-80.

Values joined by “and” are separate entries in the source; they are usually repeats but may differ in a detail not shown here. Equal entries are not always repeated. Records with an inconclusive call do not appear.

Regarding `N=[N+]=CC(=O)OCC(N)C(=O)O` (stereo not drawn), the T/C is 97 % of control (dose: 3.12 mg/kg/injection, schedule: Q07DX002 (ip), vehicle: water); 159 % of control (dose: 3.12 mg/kg/injection, schedule: Q07DX003 (ip), vehicle: clinical formulation); 117 % of control (dose: 6.25 mg/kg/injection, schedule: Q07DX002 (ip), vehicle: water); 110 % of control (dose: 6.25 mg/kg/injection, schedule: Q07DX003 (ip), vehicle: clinical formulation); 88 % of control (dose: 12.5 mg/kg/injection, schedule: Q07DX003 (ip), vehicle: clinical formulation); 99 % of control (dose: 25.0 mg/kg/injection, schedule: Q07DX002 (ip), vehicle: water). The T/C runs as follows: (dose: 25.0 mg/kg/injection, schedule: Q07DX003 (ip), vehicle: clinical formulation) 100 % of control; (dose: 50.0 mg/kg/injection, schedule: Q07DX002 (ip), vehicle: water) 91 % of control.

For the compound `C=C1CC2(OC1=O)C(=O)N(C)c1ccc(I)cc12` (stereo not drawn), the T/C is 69 % of control (dose: 1.81 mg/kg/injection, schedule: Q07DX002 (ip), vehicle: suspension in saline); 114 % of control (dose: 3.62 mg/kg/injection, schedule: Q07DX002 (ip), vehicle: suspension in saline); 120 % of control (dose: 7.25 mg/kg/injection, schedule: Q07DX002 (ip), vehicle: suspension in saline); 63 % of control (dose: 14.5 mg/kg/injection, schedule: Q07DX002 (ip), vehicle: suspension in saline); 93 % of control under setting [1]; 107 % of control (dose: 29.0 mg/kg/injection, schedule: Q07DX002 (ip), vehicle: suspension in saline). For the same compound, the T/C by setting is: (dose: 58.0 mg/kg/injection, schedule: Q07DX002 (ip), vehicle: suspension in saline) 111 % of control; under setting [2], 89 % of control; (dose: 400.0 mg/kg/injection, schedule: Q07DX002 (ip), vehicle: saline) 108 % of control and 121 % of control.

Regarding `C=C(C)[C@]12CC(C)C34OC(/C=C\C=C\CCCCCCCCC)(O[C@@H]1[C@@H]3[C@@H]1O[C@]1(CO)[C@@H](O)[C@]1(O)C(=O)C(C)=C[C@@H]41)O2` (stereo partly drawn), the T/C (dose: 0.18 mg/kg/injection, schedule: Q07DX002 (ip), vehicle: distilled water + alcohol) is 109 % of control; the T/C (dose: 0.37 mg/kg/injection, schedule: Q07DX002 (ip), vehicle: distilled water + alcohol) was 76 % of control; the T/C (dose: 0.75 mg/kg/injection, schedule: Q07DX002 (ip), vehicle: distilled water + alcohol) was 105 % of control; the T/C (dose: 1.5 mg/kg/injection, schedule: Q07DX002 (ip), vehicle: distilled water + alcohol) was 75 % of control.

With `C/C=C(\C)C(=O)OC1C(C)=C2C(C1OC(=O)CCCC)C(C)(OC(C)=O)CC(OC(=O)CCCC)C1(O)C2OC(=O)C1(C)O` (stereo not drawn), the T/C by setting is: (dose: 1.68 mg/kg/injection, schedule: Q07DX002 (ip), vehicle: Klucel (hydroxypropylcellulose) (HPC)) 54 % of control; (dose: 3.37 mg/kg/injection, schedule: Q07DX002 (ip), vehicle: Klucel (hydroxypropylcellulose) (HPC)) 87 % of control; (dose: 6.75 mg/kg/injection, schedule: Q07DX002 (ip), vehicle: Klucel (hydroxypropylcellulose) (HPC)) 61 % of control; (dose: 13.5 mg/kg/injection, schedule: Q07DX002 (ip), vehicle: Klucel (hydroxypropylcellulose) (HPC)) 105 % of control.

As for `Cc1c(N)nc([C@H](CC(N)=O)NC[C@H](N)C(N)=O)nc1C(=O)N[C@H](C(=O)N[C@H](C)[C@@H](O)[C@H](C)C(=O)N[C@H](C(=O)NCCc1nc(-c2nc(C(=O)NCCC[S+](C)C)cs2)cs1)[C@@H](C)O)C(OC1OC(CO)C(O)C(O)C1OC1OC(CO)C(O)C(OC(N)=O)C1O)c1cnc[nH]1` (stereo partly drawn), the T/C (dose: 3.0 mg/kg/injection, schedule: Q07DX003 (ip), vehicle: saline) was 62 % of control; the T/C (dose: 6.0 mg/kg/injection, schedule: Q07DX003 (ip), vehicle: saline) is 88 % of control; the T/C (dose: 12.0 mg/kg/injection, schedule: Q07DX003 (ip), vehicle: saline) was 63 % of control; the T/C (dose: 24.0 mg/kg/injection, schedule: Q07DX003 (ip), vehicle: saline) is 85 % of control; the T/C (dose: 48.0 mg/kg/injection, schedule: Q07DX003 (ip), vehicle: saline) was 60 % of control.

On to `O=NN(CCCl)C(=O)Oc1cc(Cl)c(Cl)cc1Cl`, for which the T/C is 117 % of control (dose: 25.0 mg/kg/injection, schedule: Q07DX002 (ip), vehicle: Klucel (hydroxypropylcellulose) (HPC)) and 63 % of control (dose: 50.0 mg/kg/injection, schedule: Q07DX002 (ip), vehicle: Klucel (hydroxypropylcellulose) (HPC)).

On to `C=CC(C)(C)n1cc(C2=C(O)C(=O)C(c3cn(C(C)(C)C=C)c4ccccc34)=C(O)C2=O)c2ccccc21`, for which the T/C by setting is: (dose: 5.0 mg/kg/injection, schedule: Q07DX002 (ip), vehicle: Klucel (hydroxypropylcellulose) (HPC)) 67 % of control and 79 % of control; (dose: 10.0 mg/kg/injection, schedule: Q07DX002 (ip), vehicle: Klucel (hydroxypropylcellulose) (HPC)) 66 % of control and 82 % of control; (dose: 20.0 mg/kg/injection, schedule: Q07DX002 (ip), vehicle: DMSO) 87 % of control; (dose: 40.0 mg/kg/injection, schedule: Q07DX002 (ip), vehicle: DMSO) 101 % of control; (dose: 80.0 mg/kg/injection, schedule: Q07DX002 (ip), vehicle: DMSO) 41 % of control; (dose: 80.0 mg/kg/injection, schedule: Q07DX002 (ip), vehicle: Klucel (hydroxypropylcellulose) (HPC)) 79 % of control and 81 % of control. For the same compound, the T/C (dose: 160.0 mg/kg/injection, schedule: Q07DX002 (ip), vehicle: Klucel (hydroxypropylcellulose) (HPC)) is 57 % of control and 70 % of control.

Turning to `CCSC(=O)N1c2ccc(OC)cc2C=CC1C#N` (stereo not drawn), the T/C is, setting by setting: under setting [3], 70 % of control; under setting [4], 81 % of control; under setting [5], 107 % of control; (dose: 175.0 mg/kg/injection, schedule: Q07DX002 (ip), vehicle: saline with Tween-80) 97 % of control; (dose: 350.0 mg/kg/injection, schedule: Q07DX002 (ip), vehicle: saline with Tween-80) 115 % of control and 100 % of control; under setting [6], 61 % of control. The T/C (dose: 1400.0 mg/kg/injection, schedule: Q07DX002 (ip), vehicle: saline with Tween-80) is 75 % of control and 89 % of control.

With `O=C(CO)c1ccc([N+](=O)[O-])cc1`, the T/C is, setting by setting: (dose: 6.25 mg/kg/injection, schedule: Q07DX002 (ip), vehicle: saline with Tween-80) 72 % of control; under setting [3], 105 % of control; under setting [4], 90 % of control; under setting [5], 97 % of control; under setting [7], 80 % of control.

Consider `C[N+](C)(C)c1ncnc2nc[nH]c12`, for which the T/C under setting [1] was 83 % of control; the T/C (dose: 50.0 mg/kg/injection, schedule: Q07DX002 (ip), vehicle: saline) is 77 % of control and 98 % of control; the T/C (dose: 100.0 mg/kg/injection, schedule: Q07DX002 (ip), vehicle: saline) was 96 % of control and 100 % of control; the T/C under setting [2] is 75 % of control and 85 % of control.

As for `O=c1c(O)c(-c2cc(O)c(O)c(O)c2)oc2cc(O)cc(O)c12`, the T/C was 75 % of control (dose: 6.25 mg/kg/injection, schedule: Q07DX002 (ip), vehicle: other); 87 % of control (dose: 12.5 mg/kg/injection, schedule: Q07DX002 (ip), vehicle: other); 152 % of control and 172 % of control under setting [3]; 73 % of control (dose: 25.0 mg/kg/injection, schedule: Q07DX002 (ip), vehicle: other); 113 % of control and 107 % of control under setting [4]; 96 % of control (dose: 50.0 mg/kg/injection, schedule: Q07DX002 (ip), vehicle: other). The T/C reads like this: (dose: 50.0 mg/kg/injection, schedule: Q07DX002 (ip), vehicle: saline with Tween-80) 120 % of control and 107 % of control; (dose: 100.0 mg/kg/injection, schedule: Q07DX002 (ip), vehicle: other) 65 % of control; under setting [5], 161 % of control and 214 % of control; (dose: 200.0 mg/kg/injection, schedule: Q07DX002 (ip), vehicle: other) 98 % of control; under setting [7], 187 % of control; (dose: 400.0 mg/kg/injection, schedule: Q07DX002 (ip), vehicle: other) 77 % of control. Also, the T/C under setting [6] was 116 % of control and 100 % of control.
